Measured values: the NIST ThermoML archive (doi:10.1016/j.jct.2004.11.020)

What was measured:
[1] = 308.15 K, 101.33 kPa, Liquid; for speed of sound: Pulse-echo method
[2] = xn = mol fraction of the nth substance listed; conditions: 308.15 K, 101 kPa, Liquid; for speed of sound: Pulse-echo method

O=C1CCCN1 [2-pyrrolidinone]
[1]
Conditions | mass density [kg/m3] | speed of sound [m/s] | viscosity [mPa·s]
– | 1097.14 | 1600 | 8.922

CCC(O)CO (stereo not drawn) [1,2-butanediol]
[1]
Conditions | mass density [kg/m3] | speed of sound [m/s] | viscosity [mPa·s]
– | 988.25 | 1422.6 | 30.29

CC(O)CCO (stereo not drawn) [1,3-butanediol] + O=C1CCCN1
[2]
Conditions | excess molar volume [m3/mol] | speed of sound [m/s] | viscosity [mPa·s]
x2 = 0.0122 | 2e-09 | – | –
x2 = 0.0261 | – | 1498 | 51.57
x2 = 0.0368 | 8e-09 | – | –
x2 = 0.0526 | – | 1500.5 | 46.61
x2 = 0.055 | 2.3e-08 | – | –
x2 = 0.0755 | – | 1502.8 | 44.87
x2 = 0.0812 | 3.4e-08 | – | –
x2 = 0.0939 | 4.6e-08 | – | –
x2 = 0.1 | – | 1504.8 | 40.88
x2 = 0.1079 | 5.5e-08 | – | –
x2 = 0.1227 | 5.9e-08 | – | –
x2 = 0.1447 | 6.3e-08 | – | –
x2 = 0.1543 | – | 1509.2 | 36.15
x2 = 0.1594 | 6.7e-08 | – | –
x2 = 0.1843 | 8.2e-08 | – | –
x2 = 0.2041 | – | 1513.2 | 31.48
x2 = 0.2174 | 9.5e-08 | – | –
x2 = 0.2396 | 1.02e-07 | – | –
x2 = 0.2586 | 1.16e-07 | – | –
x2 = 0.2859 | 1.25e-07 | – | –
x2 = 0.3003 | – | 1521.1 | 26.19
x2 = 0.3054 | 1.31e-07 | – | –
x2 = 0.3436 | 1.38e-07 | – | –
x2 = 0.3606 | 1.42e-07 | – | –
x2 = 0.3817 | 1.46e-07 | – | –
x2 = 0.3932 | – | 1529.1 | 21.54
x2 = 0.4337 | 1.48e-07 | – | –
x2 = 0.4571 | 1.49e-07 | – | –
x2 = 0.4815 | 1.49e-07 | – | –
x2 = 0.4985 | – | 1539 | 17.82
x2 = 0.519 | 1.48e-07 | – | –
x2 = 0.5798 | 1.45e-07 | – | –
x2 = 0.5931 | 1.41e-07 | – | –
x2 = 0.5936 | 1.39e-07 | – | –
x2 = 0.6015 | 1.38e-07 | – | –
x2 = 0.603 | – | 1549 | 15.46
x2 = 0.6087 | 1.37e-07 | – | –
x2 = 0.6204 | 1.33e-07 | – | –
x2 = 0.6319 | 1.32e-07 | – | –
x2 = 0.6419 | 1.32e-07 | – | –
x2 = 0.6744 | 1.28e-07 | – | –
x2 = 0.6903 | 1.22e-07 | – | –
x2 = 0.6985 | – | 1559.4 | 13.17
x2 = 0.705 | 1.2e-07 | – | –
x2 = 0.7245 | 1.15e-07 | – | –
x2 = 0.7372 | 1.15e-07 | – | –
x2 = 0.7679 | 1.07e-07 | – | –
x2 = 0.7781 | 9.8e-08 | – | –
x2 = 0.7935 | – | 1570.9 | 11.85
x2 = 0.7976 | 9.2e-08 | – | –
x2 = 0.8132 | 8.3e-08 | – | –
x2 = 0.8358 | 7.3e-08 | – | –
x2 = 0.839 | – | 1576.8 | 10.81
x2 = 0.8994 | – | 1585.1 | 9.984
x2 = 0.9271 | – | 1589 | 9.739
x2 = 0.947 | – | 1592.3 | 9.44
x2 = 0.9774 | – | 1596.3 | 9.15

OCCCCO [1,4-butanediol] + O=C1CCCN1
[2]
Conditions | excess molar volume [m3/mol] | speed of sound [m/s] | viscosity [mPa·s]
x2 = 0.0144 | -1e-09 | – | –
x2 = 0.0265 | – | 1579.3 | 44.47
x2 = 0.0335 | -2e-09 | – | –
x2 = 0.0524 | – | 1580.6 | 42.37
x2 = 0.0631 | -5e-09 | – | –
x2 = 0.0746 | – | 1581.5 | 40.73
x2 = 0.0859 | -7e-09 | – | –
x2 = 0.099 | – | 1582.3 | 39.16
x2 = 0.1034 | -1.2e-08 | – | –
x2 = 0.1244 | -1.6e-08 | – | –
x2 = 0.133 | -1.8e-08 | – | –
x2 = 0.1495 | -2.2e-08 | – | –
x2 = 0.1515 | – | 1583.7 | 35.63
x2 = 0.1707 | -2.4e-08 | – | –
x2 = 0.1835 | -2.6e-08 | – | –
x2 = 0.1968 | -2.7e-08 | – | –
x2 = 0.197 | – | 1585.2 | 32.87
x2 = 0.2205 | -2.8e-08 | – | –
x2 = 0.2428 | -2.9e-08 | – | –
x2 = 0.2649 | -2.7e-08 | – | –
x2 = 0.2863 | -2.6e-08 | – | –
x2 = 0.2914 | – | 1587.8 | 27.93
x2 = 0.3121 | -2.6e-08 | – | –
x2 = 0.3339 | -2.2e-08 | – | –
x2 = 0.3582 | -2e-08 | – | –
x2 = 0.384 | -1.5e-08 | – | –
x2 = 0.3911 | – | 1589.6 | 23.57
x2 = 0.4202 | -1.1e-08 | – | –
x2 = 0.4438 | -9e-09 | – | –
x2 = 0.4533 | – | 1590.3 | –
x2 = 0.4656 | -7e-09 | – | –
x2 = 0.4771 | -4e-09 | – | –
x2 = 0.4954 | -2e-09 | – | –
x2 = 0.5159 | -2e-09 | – | –
x2 = 0.5237 | – | 1591.3 | 19.22
x2 = 0.527 | 0 | – | –
x2 = 0.5409 | 1e-09 | – | –
x2 = 0.5644 | 4e-09 | – | –
x2 = 0.5753 | 6e-09 | – | –
x2 = 0.5886 | 7e-09 | – | –
x2 = 0.5997 | – | 1592.6 | 17.1
x2 = 0.6032 | 8e-09 | – | –
x2 = 0.6155 | 1e-08 | – | –
x2 = 0.6273 | 1.3e-08 | – | –
x2 = 0.6452 | 2e-08 | – | –
x2 = 0.6685 | 2.2e-08 | – | –
x2 = 0.6788 | 2.3e-08 | – | –
x2 = 0.6904 | – | 1593.7 | 14.81
x2 = 0.6925 | 2.4e-08 | – | –
x2 = 0.7159 | 2.5e-08 | – | –
x2 = 0.7338 | 2.6e-08 | – | –
x2 = 0.7494 | 2.7e-08 | – | –
x2 = 0.7878 | – | 1595 | 12.92
x2 = 0.8877 | – | 1596.8 | 10.74
x2 = 0.9305 | – | 1598 | 10.14
x2 = 0.9481 | – | 1598.5 | 9.772
x2 = 0.9741 | – | 1599.2 | 9.275
